O=C1Cc2cc(F)ccc2N1
solubility (mole fraction)
Conditions | 278.15 K | 283.15 K | 288.15 K | 293.15 K | 298.15 K | 303.15 K | 308.15 K | 313.15 K | 318.15 K | 323.15 K
in DMF | 0.226 | 0.239 | 0.253 | 0.27 | 0.289 | 0.309 | 0.331 | 0.357 | 0.384 | 0.419
in THF | 0.0838 | 0.0938 | 0.104 | 0.115 | 0.129 | 0.144 | 0.162 | 0.183 | 0.209 | 0.237
in acetone | 0.0551 | 0.0618 | 0.0678 | 0.0764 | 0.085 | 0.096 | 0.108 | 0.123 | 0.14 | 0.16
in acetonitrile | 0.02 | 0.0227 | 0.0261 | 0.03 | 0.0344 | 0.0399 | 0.0463 | 0.0537 | 0.0632 | 0.0748
in ethyl acetate | 0.0149 | 0.0165 | 0.0185 | 0.0206 | 0.0234 | 0.0265 | 0.03 | 0.0343 | 0.0394 | 0.0459
in isopropanol | 0.0197 | 0.0225 | 0.0263 | 0.0309 | 0.0367 | 0.0436 | 0.0506 | 0.0601 | 0.0717 | 0.0857
in methanol | 0.0247 | 0.0296 | 0.0358 | 0.0422 | 0.0504 | 0.0594 | 0.0704 | 0.0841 | 0.0998 | 0.12
in n-hexane | 0.000387 | 0.000492 | 0.000623 | 0.000784 | 0.000984 | 0.00125 | 0.00153 | 0.00196 | 0.00247 | 0.00311
in n-propanol | 0.0293 | 0.0336 | 0.0388 | 0.0445 | 0.0513 | 0.0598 | 0.0688 | 0.0798 | 0.093 | 0.11

— BigSolDB 2.1
